Assay results published in patent publication US10183936B2, “Hepatitis B core protein allosteric modulators” (priority 2014, dated 2019).

Assays:
[1] = test system: HBV viral production in AD38 cells; assay: Viral load production in AD38 cells by quantitative PCR of the HBV core sequence in supernatant; type: cell-based; conditions: Hepatitis B virus, 144 h; 10 μM compound, 6 days at 37° C., viral load in supernatant compared against DMSO control wells; read-out: AD38 Viral Load (CpAM/DMSO %) at 10 μM
In short: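 AD38 cells seeded at 50,000/well, treated 6 days at 37° C with compound added as 10× solution in 10% DMSO. HBV core sequence in clarified supernatant quantified by TaqMan qPCR against known standards; viral load compared with DMSO control wells.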

AD38 cells = assay: Viability of AD38 cells (Promega CellTiter-Glo) at the end of compound treatment; type: cell-based; conditions: 10 μM compound, 6 days, luminescence normalized against DMSO control wells (controls being 100%)
In short: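 AD38 cells seeded at 50,000/well received compound from a 10× solution in 10% DMSO and were incubated 6 days at 37° C. Viability was then read by CellTiter-Glo luminescence in tetracycline-free medium with 2% FBS and 1% DMSO, normalized to DMSO control wells (100%) and reported as percent viability.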

| SMILES | activity at 10 µM [1] | AD38 Viability Normalized Result (CPAM/DMSO %) at 10 μM (AD38 cells) |
| --- | --- | --- |
| O=C1Nc2cc(S(=O)(=O)N3CCC(O)C3)ccc2Sc2ccccc21 (stereo not drawn) [Compound 1433] | 82% | 94% |
| O=C1Nc2cc(S(=O)(=O)N3CC(O)C3)ccc2Sc2ccccc21 [Compound 1434] | 85% | 96% |
| O=C(Nc1cccc(-c2ccccc2C(=O)O)c1)c1ccc2c(c1)NC(=O)c1cc(F)ccc1S2 [Compound 1435, 3′-(2-fluoro-11-oxo-10, 11-dihydrodibenzo [b,f] [1,4]thiazepine-8-carboxamido)-[1, 1′-biphenyl]-2-carboxylic acid] | 77% | 99% |
| COC(=O)c1ccccc1-c1cccc(NC(=O)c2ccc3c(c2)NC(=O)c2cc(F)ccc2S3)c1 [Compound 1436, Methyl 3′-(2-fluoro-11-oxo-10, 11-dihydrodibenzo [b,f] [1,4]thiazepine-8-carboxamido)-[1, 1′-biphenyl]-2-carboxylate] | 10% | 104% |
| O=C(Nc1cccc(-c2cncnc2)c1)c1ccc2c(c1)NC(=O)c1cc(F)ccc1S2 [Compound 1440] | 71% | 91% |
| O=C(Nc1cccc(-c2cncs2)c1)c1ccc2c(c1)NC(=O)c1cc(F)ccc1S2 [Compound 1441] | 28% | 90% |
| O=C(Nc1nncs1)c1ccc2c(c1)NC(=O)c1cc(F)ccc1S2 [Compound 1442] | 65% | 99% |
| O=C(Nc1ncc(Cl)s1)c1ccc2c(c1)NC(=O)c1cc(F)ccc1S2 [Compound 1443] | 64% | 95% |
| O=C(Nc1ccncc1)c1ccc2c(c1)NC(=O)c1ccccc1S2 [Compound 1444] | 6% | 65% |
| O=C(Nc1cccc(-c2ccccc2)c1)c1ccc2c(c1)NC(=O)c1ccccc1S2 [Compound 1445] | 24% | 38% |
| O=C(NCc1cncnc1)c1ccc2c(c1)NC(=O)c1ccccc1S2(=O)=O [Compound 1446] | 3% | 84% |
| O=C(NCCc1ccccn1)c1ccc2c(c1)NC(=O)c1ccccc1S2(=O)=O [Compound 1447] | 1% | 85% |
| O=C(NCCc1cccnc1)c1ccc2c(c1)NC(=O)c1ccccc1S2(=O)=O [Compound 1448] | 3% | 85% |
| O=C(NCc1cccnc1)c1ccc2c(c1)NC(=O)c1ccccc1S2(=O)=O [Compound 1449] | 2% | 86% |
| CC(C)NS(=O)(=O)c1ccc2c(c1)NC(=O)c1ccccc1S2 [Compound 1450] | 73% | 94% |
| O=C(Nc1cccc(-c2ccncn2)c1)c1ccc2c(c1)NC(=O)c1cc(F)ccc1S2 [Compound 1451] | 30% | 92% |
| COc1cccc(-c2cccc(NC(=O)c3ccc4c(c3)NC(=O)c3cc(F)ccc3S4)c2)c1 [Compound 1452] | 15% | 62% |
| O=C(Nc1cccc(-c2ccc(O)cc2)c1)c1ccc2c(c1)NC(=O)c1cc(F)ccc1S2 [Compound 1453] | 48% | 97% |
| O=C(Nc1nc(-c2ccccc2)co1)c1ccc2c(c1)NC(=O)c1cc(F)ccc1S2 [Compound 1454] | 27% | 95% |
| O=C(NCc1cncs1)c1ccc2c(c1)NC(=O)c1ccccc1S2(=O)=O [Compound 1455] | 3% | 89% |
| O=C(NCc1cnco1)c1ccc2c(c1)NC(=O)c1ccccc1S2(=O)=O [Compound 1456] | 15% | 101% |
| O=C(NCCc1cncnc1)c1ccc2c(c1)NC(=O)c1ccccc1S2(=O)=O [Compound 1457] | 28% | 92% |
| O=C(Nc1cccc(-c2ccccc2)c1)c1ccc2c(c1)NC(=O)c1ccccc1S2(=O)=O [Compound 1458] | 12% | 49% |
| Cc1c(C(=O)NCCc2ccccn2)ccc2c1NC(=O)c1ccccc1S2 [Compound 1459] | 4% | 92% |
| O=C(Nc1ccncc1)c1ccc2c(c1)NC(=O)c1ccccc1S2(=O)=O [Compound 1462] | 35% | 99% |
| O=C(Nc1ccncc1)c1ccc2c(c1)NC(=O)c1c(F)cccc1S2 [Compound 1463] | 31% | 97% |

| SMILES | activity at 10 µM [1] | AD38 Viability Normalized Result (CPAM/DMSO %) at 10 μM (AD38 cells) |
| --- | --- | --- |
| O=C(NCCc1cncnc1)c1ccc2c(c1)NC(=O)c1ccccc1N2Cc1ccccc1 [Compound 1464] | 49% | 98% |
| O=C(NCCc1ccc(-c2ccccc2)cc1)c1ccc2c(c1)NC(=O)c1c(F)cccc1S2 [Compound 1465] | 39% | 106% |
| O=C(NCCc1ccc(-c2ccccc2)cc1)c1ccc2c(c1)NC(=O)c1cccc(F)c1S2 [Compound 1466] | 7% | 88% |
| Cc1c(C(=O)NCCc2cccnc2)ccc2c1NC(=O)c1ccccc1S2 [Compound 1467] | 1% | 92% |
| O=C(Nc1cccc(-c2cccc(O)c2)c1)c1ccc2c(c1)NC(=O)c1cc(F)ccc1S2 [Compound 1468] | 76% | 97% |
| O=C(NCCc1ccccn1)c1ccc2c(c1)NC(=O)c1c(F)cccc1S2 [Compound 1471] | 16% | 97% |
| O=C(Nc1cccc(-c2ccccc2)c1)c1ccc2c(c1)NC(=O)c1c(F)cccc1S2 [Compound 1472] | 37% | 95% |
| O=C1Nc2cc(S(=O)(=O)NCc3cncnc3)ccc2Sc2ccccc21 [Compound 1473] | 81% | 97% |
| O=C(NCCc1ccccn1)c1ccc2c(c1)NC(=O)c1ccccc1N2Cc1ccccc1 [Compound 1474] | 51% | 101% |
| O=C(NCCc1cccnc1)c1ccc2c(c1)NC(=O)c1ccccc1N2Cc1ccccc1 [Compound 1475] | 47% | 107% |
| O=C(NCCc1ccc(-c2ccccc2)cc1)c1ccc2c(c1)NC(=O)c1ccccc1[S+]2[O-] (stereo not drawn) [Compound 1476] | 1% | 86% |
| CN(C)S(=O)(=O)c1ccc(CCNC(=O)c2ccc3c(c2)NC(=O)c2c(F)cccc2S3)cc1 [Compound 1477] | 67% | 16% |
| Cc1c(C(=O)NCc2cncnc2)ccc2c1NC(=O)c1ccccc1S2 [Compound 1478] | 2% | 94% |
| O=C(Nc1ncc(-c2ccccc2)o1)c1ccc2c(c1)NC(=O)c1cc(F)ccc1S2 [Compound 1480] | 72% | 95% |
| O=C(Nc1ncc(-c2ccccc2)s1)c1ccc2c(c1)NC(=O)c1cc(F)ccc1S2 [Compound 1481] | 46% | 100% |
| O=C(NCc1cncnc1)c1ccc2c(c1)NC(=O)c1ccccc1N2Cc1ccccc1 [Compound 1482] | 46% | 98% |
| O=C(NCCc1ccc(-c2ccccc2)cc1)c1ccc2c(c1)NC(=O)c1ccccc1N2Cc1ccccc1 [Compound 1483] | 65% | 98% |
| O=C(Nc1cccc(-c2ccccc2)c1)c1ccc2c(c1)NC(=O)c1ccccc1N2Cc1ccccc1 [Compound 1484] | 26% | 100% |
| O=C(NCCc1cnco1)c1ccc2c(c1)NC(=O)c1ccccc1[S+]2[O-] (stereo not drawn) [Compound 1485] | 30% | 96% |
| CN(C)S(=O)(=O)c1ccc(CCNC(=O)c2ccc3c(c2)NC(=O)c2ccccc2[S+]3[O-])cc1 (stereo not drawn) [Compound 1486] | 53% | 94% |
| O=C(NCCc1cnco1)c1ccc2c(c1)NC(=O)c1cccc(F)c1S2 [Compound 1487] | 15% | 96% |
| CN(C)S(=O)(=O)c1ccc(CCNC(=O)c2ccc3c(c2)NC(=O)c2cccc(F)c2S3)cc1 [Compound 1488] | 84% | 97% |
| O=C(NCc1cccnc1)c1ccc2c(c1)NC(=O)c1c(F)cccc1S2 [Compound 1490] | 7% | 79% |
| O=C(NCCc1ccc(-c2ccccc2)cc1)c1cc2c(cc1F)Sc1ccccc1C(=O)N2 [Compound 1491] | 39% | 80% |
| O=C(NCc1cnco1)c1ccc2c(c1)NC(=O)c1ccccc1N2Cc1ccccc1 [Compound 1492] | 39% | 79% |
